Measurements reported in patent US20250186420A1, “POLYMETHINIUM SALTS AS INHIBITORS OF DIHYDROOROTATE DEHYDROGENASE” (UNIVERZITA KARLOVA, priority 2022, published 2025).

Columns and labels:
Type in all cases: cell-based
[1] = system: PC-3; test: xCELLigence real-time impedance cell migration; conditions: for Normalized cell index (cell migration): cell index normalized to 1.0 at addition of test agent, concentration based on IC50 for the cell line
Description: (§1) The xCELLigence system based on real-time cell impedance analysis (RTCA) was used to determine invasiveness and migration rates. The xCELLigence system consists of four main components: an RTCA DP station, an RTCA computer with integrated software, and CIM 16 disposable plates. First, the optimal cell seeding concentration for the proliferation and invasiveness assay was determined. After seeding the total number of cells in 200 μl medium into each well in E-plate 16, cell adherence and proliferation were monitored every 15 minutes. For the invasiveness assay, the optimal response was found in a well containing 20,000 cells. After coating the upper wells with matrigel and adding FBS as a chemoattractant, cells were seeded in 100 μl medium in each well of a CIM-plate 16. Adherence and growth of cells through the matrigel was monitored every 15 minutes. The duration of all experiments was 150 hours. The relative invasiveness rate was defined as the cellular index for matrigel-coated wells (cells must spread/pass through the matrigel to generate a signal) at a given time point. The impedance of electron flow due to adherent cells is given by a unitless parameter called the cell index (CI), where CI=(impedance at time point n-impedance in the absence of cells)/nominal impedance value). In order to compare individual cell lines/treatment, these cell indices were normalized to 1.0 at the time the test agents were added. Concentrations of compounds were chosen based on the IC50 inhibitory concentration for each cell line.

[2] = system: PNTA; test: xCELLigence real-time impedance cell migration; conditions: for Normalized cell index (cell migration): cell index normalized to 1.0 at addition of test agent, concentration based on IC50 for the cell line
Description: as §1

[3] = system: U-2 OS; test: xCELLigence real-time impedance cell migration; conditions: for Normalized cell index (cell migration): cell index normalized to 1.0 at addition of test agent, concentration based on IC50 for the cell line
Description: as §1

[4] = system: PC-3; test: xCELLigence real-time impedance cell invasiveness (matrigel); conditions: for Normalized cell index (cell invasiveness): matrigel-coated wells, normalized to 1.0 at addition of test agent, concentration based on IC50 for the cell line
Description: as §1

[5] = system: PNTA; test: as above; conditions: for Normalized cell index (cell invasiveness): matrigel-coated wells, normalized to 1.0 at addition of test agent, concentration based on IC50 for the cell line
Description: as §1

[6] = system: U-2 OS; test: as above; conditions: for Normalized cell index (cell invasiveness): matrigel-coated wells, normalized to 1.0 at addition of test agent, concentration based on IC50 for the cell line
Description: as §1

[7] = system: DHODH-dependent respiration in PC-3; test: Inhibition of DHODH-dependent respiration (Oxygraph-2k); conditions: PC-3 tumor line; test substance 1 to 4 nM; permeabilized cells
Description: (§2) DHODH-dependent respiration was performed as follows. Cells were trypsinized, washed with PBS, resuspended in an amount of 2×10^6 cells per ml Mir05 medium (0.5 mM EGTA, 3 mM MgCl2, 60 mM K-lactobionate, 20 mM taurine, 10 mM KH2PO4, 110 mM sucrose, 1 g/L bovine serum albumin, 20 mM Hepes, pH 7.1 at 30° C.) and transferred to the chamber of the Oxygraph-2k instrument (Oroboros). Respiration was measured at 37° C. Cells were permeabilized with 5 μg of digitonin per 10^6 cells, and complex I inhibitor (0.3 μM rotenone) and test substance were added at concentrations from 1 to 4 nM before adding the substrate. DHODH-mediated respiration was assessed by subtracting the residual rate of respiration remaining after the addition of 30 μM leflunomide from the rate of respiration in the presence of 1 mM dihydroorotate (DHO), 3 mM ADP, and 10 μM cytochrome c.

[8] = system: DHODH-dependent respiration in PNT1A cell line; test: as above; conditions: model of normal prostate tissue, test substance 1 to 4 nM, permeabilized cells
Description: as §2

[9] = system: DHODH-dependent respiration in U-2 OS; test: as above; conditions: U-2 OS tumor line; test substance 1 to 4 nM; permeabilized cells
Description: as §2

Compound	Control-substance (difference of normalized cell index, cell migration) [1]	Normalized cell index (cell migration) [1]	Control-substance (difference of normalized cell index, cell migration) [2]	Normalized cell index (cell migration) [2]	Control-substance (difference of normalized cell index, cell migration) [3]	Normalized cell index (cell migration) [3]	Control-substance (difference of normalized cell index, cell invasiveness) [4]	Normalized cell index (cell invasiveness) [4]	Control-substance (difference of normalized cell index, cell invasiveness) [5]	Normalized cell index (cell invasiveness) [5]	Control-substance (difference of normalized cell index, cell invasiveness) [6]	Normalized cell index (cell invasiveness) [6]	DHODH-dependent respiration [7]	DHODH-dependent respiration [8]	DHODH-dependent respiration [9]
CCCN1/C(=C/C=C(/C=C/C2=[N+](CCC)c3ccccc3C2(C)C)c2ccncc2)C(C)(C)c2ccccc21.[I-] [Substance 2]	19.3	19.5	11.6	7.0	20.4	3.9	17.4	5.4	16.5	3.2	23.7	1.9	caused a decrease in DHODH-dependent respiration	unaffected	caused a decrease in DHODH-dependent respiration
CCCN1/C(=C/C=C(/C=C/c2sc3ccccc3[n+]2CCC)c2ccccc2)Sc2ccccc21.[I-] [Substance 1]	30.0	8.8	15.2	3.4	20.8	3.5	21.4	1.4	16.9	2.8	24.3	1.3	caused a decrease in DHODH-dependent respiration	unaffected	caused a decrease in DHODH-dependent respiration
